Test results taken from patent publication US11400076B2, “Cancer stem cell inhibitor” (KEIO UNIVERSITY, priority 2017, dated 2022).

Assays:
[1] = system: cancer stem cells (spheroid-forming cells); test: Spheroid culture of cancer stem cells in 96-well plate with analyte; type: cell-based, mice; conditions: various concentration of analytes, medium without differentiation-inducing component, FIG. 2
Experimental: (§1) In accordance with the literature ([…]. et. al., Neoplasia, 13(9) 2011, 784 to 791), the subventricular zone was resected from Ink4a/Arf deficient mice and subjected to trypsin treatment to obtain spheroid-forming cells. The resulting spheroids were cultured in a culture medium containing no differentiation-inducing component (DMEM/F12 in which 20 ng/mL of EGF, 20 ng/mL of FGF, B27 supplement in which vitamin A was removed, 200 ng/mL of heparan sulfate, 100 U/mL of penicillin, and 100 U/mL of streptomycin were added) in a flow of 5% carbon dioxide at 37° C. Then, a constitutively active, mutated form of H-Ras and, as necessary, reporter cassettes for detecting, for example, fluorescent signals or selection marker for cell selection, for example, drug-resistant cassettes, were incorporated into cancer stem cells for transformation, and cultured to obtain spheroid-forming cells. These cells were transplanted to the brains of C57BL/6 mice, then the formed brain tumors were resected and subjected to trypsin treatment to obtain cells. Drug-resistant or fluorescent reporter-positive cells were sorted, and then cell cycle markers were introduced into part of the cells. Thus-obtained spheroid-forming cells were cultured under the above-described culturing condition, and used as a sample. […]

[2] = system: cancer stem cells (spheroid-forming cells); test: Monolayer culture of cancer stem cells, cell cycle and growth; type: cell-based, mice; conditions: various concentrations, FIG. 3
Experimental: as §1, with “sample. The above cells were subjected to monolayer culture.” for “sample.”

[3] = system: cancer stem cells (spheroid); test: Spheroid cell death monitored with propidium iodide (PI); type: cell-based, mice; conditions: for cell death (PI positive area): spheroid, PI added, monitored over time, FIG. 4
Experimental: In accordance with the literature (Sampetrean O. et. al., Neoplasia, 13(9) 2011, 784 to 791), the subventricular zone was resected from Ink4a/Arf deficient mice and subjected to trypsin treatment to obtain spheroid-forming cells. The resulting spheroids were cultured in a culture medium containing no differentiation-inducing component (DMEM/F12 in which 20 ng/mL of EGF, 20 ng/mL of FGF, B27 supplement in which vitamin A was removed, 200 ng/mL of heparan sulfate, 100 U/mL of penicillin, and 100 U/mL of streptomycin were added) in a flow of 5% carbon dioxide at 37° C. […] These cells were transplanted to the brains of C57BL/6 mice, then the formed brain tumors were resected and subjected to trypsin treatment to obtain cells. Drug-resistant or fluorescent reporter-positive cells were sorted, and then cell cycle markers were introduced into part of the cells. Thus-obtained spheroid-forming cells were cultured under the above-described culturing condition, and used as a sample.

cancer stem cells [4] = test: ATP levels in cancer stem cells; type: cell-based, mice; conditions: 21% oxygen (normoxic) and 1% oxygen (hypoxic), FIG. 6
Experimental: (§2) Since the cell cycle was arrested in the G1 phase, a decrease in energy metabolism was suspected. ATP levels under 21% oxygen (normoxic condition) and 1% oxygen (hypoxic condition) were measured using the same cells as in Example 1. […] From this, suppression of mitochondrial function was suspected, and so, mitochondrial function was evaluated by extracellular flux analysis.

[5] = system: mitochondria in cancer stem cells; test: Mitochondrial function by extracellular flux analysis; type: cell-based, mice; conditions: 21% oxygen (normoxic) and 1% oxygen (hypoxic), FIG. 6
Experimental: as §2

mitochondrial complex II = test: Expression levels of mitochondrial complex I to V by electrophoresis and Western Blot; type: cell-based, mice; conditions: protein extracted from cells of Example 1, FIG. 7
Experimental: Furthermore, protein was extracted from cells of Example 1, and the expression levels of mitochondrial complex I to V were measured by electrophoresis and Western Blot.

[6] = system: reactive oxygen species (ROS) in mitochondria; test: Mito Sox staining, mitochondrial ROS by flow cytometry; type: cell-based, mice; conditions: FIG. 8
Source text: Using Mito Sox staining, reactive oxygen species (ROS) in mitochondria was quantified by flow cytometry for the cells cultured according to Example 1, with or without doranidazole, misonidazole, or metronidazole.

[7] = system: undifferentiated cancer stem cells; test: Effect with altered degree of induction of differentiation by serum; type: cell-based, mice; conditions: serum-free vs serum-containing medium, 4 days, FIG. 9
Source text: Using the method similar to Example 1, the degree of induction of differentiation was altered by changing the culture mediums, to observe the effect thereby. Specifically, a group cultured in a serum-free culture medium of Example 1 for consecutive 4 days; a group cultured in a serum-free culture medium for 3 days, and then cultured in a serum-containing culture medium for 1 day; a group cultured in a serum-containing culture medium for 3 days, and then cultured in a serum-free culture medium for 1 day; and the remaining one group cultured in a serum-containing culture medium for 4 days; were prepared. According to such culturing, the degree of induction of differentiation by serum was altered and the effect of doranidazole was confirmed.

cancer stem cells [8] = test: Radiation-induced double-strand break, Hoechst 33324 and γH2AX double staining; type: cell-based, mice; conditions: irradiated, hypoxic condition, FIG. 10
Source text: Cells cultured according to the method of Example 1, with or without doranidazole, were irradiated, followed by double staining with Hoechst 33324 and γH2AX, and then double-strand break was quantified.

[9] = in vivo; cited from earlier work

Row | SMILES | growth of spheroids [1] | cell cycle [2] | growth [2] | type of cell death ([3]; inhibitor comparison, FIG. 5) | cell death (PI positive area) [3] | ATP content of cancer stem cells (cancer stem cells [4]) | oxygen consumption of mitochondria [5] | reserve capacity of mitochondria [5] | expression of complex II (mitochondrial complex II) | ROS in mitochondria [6] | effect depending on degree of induction of differentiation by serum [7] | radiation-induced double-strand break (cancer stem cells [8]) | LD50 [9] | suppression of doranidazole-induced cell death ([3]; compared to DMSO, necrostatin 1 and Z-VAD-FMK, FIG. 5)
1 | O=[N+]([O-])c1nccn1COC(CO)C(O)CO (centres unmarked) [doranidazole] | suppresses the growth of spheroids | arrests the cell cycle in the G1 phase | suppresses growth | ferroptosis | cell death is induced by doranidazole in dose dependent manner | decreased | decreased depending on the concentration | decreased depending on the concentration | remarkably decreased | significantly increases | when the degree of induction of differentiation by serum is low, the effect of doranidazole is remarkable | significantly enhances | ≥ 5000 mg/kg | –
2 | CCOC(=O)c1ccc(NC2CCCCC2)c(N)c1 [ferrostatin 1] | – | – | – | – | – | – | – | – | – | – | – | – | – | significantly suppressed
3 | Cc1ncc([N+](=O)[O-])n1CCO [metronidazole] | – | – | – | – | no cell death was observed | – | – | – | – | not observed | – | – | – | –
4 | COCC(O)Cn1ccnc1[N+](=O)[O-] (centres unmarked) [misonidazole] | – | – | – | – | the cell death was similarly confirmed | – | – | – | remarkably decreased | significantly increases | – | – | about 1 g/kg | –
